From patent publication US20240165112A1, “THERAPY FOR THE TREATMENT OF CANCER” (Bristol-Myers Squibb Company, priority 2022, published 2024) come the findings set out here.

A short description of data set [1]: Plasma concentration of Compound 1 at the 400 mg dose. To be noted: 400 mg dose in human. Format: in vivo.
The test system of data set [2] is phospho-c-Jun in lung cancer-associated fibroblasts (CAF). Kind of data set: TGF-β-induced c-Jun phosphorylation (capillary western). The class given is cell-based. As to conditions: Homo sapiens, Fibroblast, 10 ng/mL TGF-β for 2 hours, western blot, read-out: EC50 on phospho-c-Jun levels. How it is done: (§1) Normal human lung fibroblasts (NHLF, black circle) or lung cancer-associated fibroblasts (CAF, black square) were treated with 10 ng/mL TGF-β after 1 hour pre-incubation with a range of Compound 1 concentrations, and cells were lysed 2 hours later. Phospho-c-Jun levels were evaluated by western blot. Abbreviations: CAF, cancer-associated fibroblasts; NHLF, normal lung human fibroblasts; TGF-β, transforming growth factor beta.
(§2) Normal human lung fibroblasts (NHLF) and lung cancer-associated fibroblasts (CAF) were maintained in their respective vendor recommended media. For the purposes of comparing the two cell lines, NHLF and lung CAF were both adapted to DMEM+10% fetal bovine serum (FBS) and to RPMI+10% FBS prior to use in the activation assay. Cells were seeded (150,000 NHLF and lung CAF cells) in 12 well plates and allowed to adhere overnight at 37° C., 5% CO2. The next day, cells were pre-treated for […] at 37° C. with DMSO or Compound 1 at 30 μM, 7.5 μM, 1.875 μM, 0.469 μM, 0.117 μM, 0.029 μM, and 0.007 μM. […]
(§3) The levels of phospho-c-Jun in NHLF and non-small cell lung CAF in response to TGF-β in the presence of DMSO or varying concentrations of Compound 1 were summarized in FIG. 7. […] Phospho-c-Jun levels were determined by western blot analysis and were normalized to DMSO treated samples.
Background: Immunoblotting shows a protein as a band on a membrane.

The test system of data set [3] is phospho-c-Jun in normal human lung fibroblasts (NHLF). Described as above. The class given is cell-based. To be noted: Fibroblast, 10 ng/mL TGF-β for 2 hours, western blot, read-out: EC50 on phospho-c-Jun levels. How it is done: as §1, §2, §3
Data set [4] relates to TNC, ACTA2, PAI-1 transcripts in normal human lung fibroblasts (NHLF). Nature of the data set: TGF-β-induced gene transcription, fibroblast activation markers (RT-PCR). The class given is cell-based. How it is done: Normal human lung fibroblasts (NHLF, black bars) were treated with 10 ng/mL TGF-β after 1 hour pre-incubation with a range of Compound 1 concentrations, and cells were lysed 24 hours later. Indicated gene transcripts were assessed by RT-PCR relative to GAPDH. Data were normalized to expression after TGF-β treatment in the presence of only DMSO. Data are presented as mean of 3 biological replicates, and error bars indicate standard deviation. The graphs are representative of at least 2 independent experiments. *P<0.05; ** P<0.01, ***P<0.001; ****P<0.0001 by student's t-test. Abbreviations: ACTA2, smooth muscle actin; CAF, cancer associated fibroblasts; DMSO, dimethyl sulfoxide; GAPDH, glyceraldehyde-3-phosphate dehydrogenase; NHLF, normal lung human fibroblasts; PAI-1, plasminogen activator inhibitor 1; RNA, ribonucleic acid; RT-PCR, reverse transcription polymerase chain reaction; TGF-β, transforming growth factor beta; TNC, tenascin C.
Cells were seeded (75,000 NHLF and lung CAF cells) into 12 well plates with RPMI+10% FBS and allowed to adhere overnight at 37° C., 5% CO2. After one day of serum starvation, cells were pre-treated for 1 hour with DMSO or Compound 1 at 30 μM, 10 μM, 3 μM, 1 μM, or 0.3 μM and then stimulated with 10 ng/mL TGF-β. The 24-hour Compound 1 treated samples were harvested for ribonucleic acid (RNA) extraction.
Cells were directly lysed in Qiagen™ Buffer RLT Plus with 1% 2-Mercaptoethanol added. Total RNA from tumor samples and cell lines was isolated using Qiagen™ AllPrep® DNA/RNA 96 Kit according to manufacturer's protocol. Isolated RNA was analyzed with NanoDrop™ ONE Spectrophotometer for concentration. The RNA integrity was also analyzed on Agilent TapeStation 4200.
Complimentary deoxyribonucleic acid (cDNA) was prepared by using Invitrogen™ SuperScript™ III First-Strand Synthesis SuperMix for qRT-PCR. Up to 1 μg of RNA was prepared according to manufacturer's protocol, using Applied Biosystems™ Veriti™ 96-well thermal cycler. The reverse transcription (RT) program used for cDNA synthesis: • 1. 25° C., 10 minutes • 2. 50° C., 30 minutes • 3. 85° C., 5 minutes • 4. Add E. Coli RNase H, 37° C., 20 minutes • 5. Hold at 4° C. Quantitative Reverse Transcription Polymerase Chain Reaction (qRT-PCR).
The cDNA was diluted 1:3 fold in nuclease-free water for quantitative polymerase chain reaction (qPCR) setup. Human and mouse TaqMan™ assays for targeted genes were ordered through Applied Biosystems™. TaqMan™ assay selection was based on manufacturer's recommendation. The qRT-PCR was set up using Applied Biosystems™ TaqMan™ Fast Advanced Master Mix according to manufacturer's protocol. The qRT-PCR was run on QuantStudio™ 12 Flex with fast run mode: • 1. 95° C., 20 seconds • 2. 95° C., 1 second • 3. 60° C., 20 seconds • 4. Repeat steps 2-3, 39 times
The qPCR data was analyzed, and all cycle threshold (Ct) values were normalized to glyceraldehyde-3-phosphate dehydrogenase (GAPDH) (ΔCt). Analysis was plotted and presented using GraphPad Prism (GraphPad, Version 8.4.1, San Diego, CA).
The levels of phospho-c-Jun in NHLF and non-small cell lung CAF in response to TGF-β in the presence of DMSO or varying concentrations of Compound 1 were summarized in FIG. 7. Cells were treated with DMSO or Compound 1 for 1 hour prior to treatment with 10 ng/mL TGF-β for an additional 2 hours. Phospho-c-Jun levels were determined by western blot analysis and were normalized to DMSO treated samples. […] The relative expression of fibroblast activation markers in NHLF and lung CAF in response to TGF-β in the presence of DMSO or varying concentrations of Compound 1 were summarized in FIGS. 8A-8C and FIGS. 9A-9C. Cells were treated with DMSO or Compound 1 for 2 hours prior to treatment with 10 ng/mL TGF-β. The RNA expression was assessed 24 hours after TGF-β treatment.

Where [5] appears, read: NHLF stimulated with TGFβ, 10 μM Compound 1.
The mark [6] stands for this setting: NHLF, 30 μM Compound 1, 10 ng/mL TGF-β, 24 hours.

On to `C[C@@H]1CC[C@@H](Nc2nc(NC(C)(C)C)ncc2C(N)=O)C[C@H]1O` [Compound 1, 2-(tert-butylamino)-4-((1R,3R,4R)-3-hydroxy-4-methylcyclohexylamino)-pyrimidine-5-carboxamide], for which the “plasma concentration at Cavg” value in data set [1] came to 4 µM. Further, the Cmax (as a rule, the peak of the concentration-time curve) in data set [1] (plasma) was found to be 14 µM. The EC50 (in general, the concentration needed to bring the measured effect to its halfway point) in data set [2] worked out at 330 nM. Moreover, the EC50 in data set [3] was found to be 350 nM. In data set [4] (setting [5]), the “ACTA2 reduced relative to DMSO” value is 4.1% and the “TNC reduced relative to DMSO” value is reported as 66%. For the same molecule, the “TNC induction, reduction from peak activation to baseline” value in data set [4] (NHLF, 3 μM Compound 1, 10 ng/mL TGF-β, 24 hours) amounted to 48%. For the same molecule, the “PAI-1 induction, reduction from peak activation to baseline” value in data set [4] (NHLF, 10 μM Compound 1, 10 ng/mL TGF-β, 24 hours) is 20%. Moreover, in data set [4] (setting [6]), the “ACTA2 induction, reduction from peak activation to baseline” value was 95%; the “PAI-1 induction, reduction from peak activation relative to baseline” value came out at 57%; the TNC expression result is recorded as “lower than samples that never received TGF-β”.
